{
  "source": "patent US12630557B2",
  "about": "“Salt and crystal form of pyrimidine compound, and preparation methods therefor” (Sichuan Kelun-Biotech Biopharmaceutical Co., Ltd., priority 2020, dated 2026)",
  "key": {"[1]": {"assay": "Solubility determination at different pH", "type": "physicochemical", "conditions": "aqueous buffer"}, "[2]": {"assay": "Stability experiment under conditions of influencing factors (high temperature / high humidity)", "type": "physicochemical", "conditions": "for HPLC purity: area normalized purity", "from_the_text": "Stability data of the crystal form A of the fumarate salt of the compound I under conditions of influencing factors is provided in Table 17 (HPLC purity is area normalized purity)."}, "[3]": {"assay": "Dynamic water adsorption (DVS) experiment", "type": "physicochemical", "conditions": "25° C.", "method": "Device information: SMS (Surface Measurement Systems) Intrinsic\nExperimental method: temperature: 25° C.; protective gas N2; maximum equilibration time: 120 min; RH range: 0%-90%-0%."}, "CCDC6-RET": {"target": "T1, CCDC6-RET (Homo sapiens, UniProt P07949)", "T1 construct": "the other entry of the earlier key: CCDC6 (Q16204, Coiled-coil domain-containing protein 6)", "T1 sequence (P07949 with tags, fused parts or gaps)": "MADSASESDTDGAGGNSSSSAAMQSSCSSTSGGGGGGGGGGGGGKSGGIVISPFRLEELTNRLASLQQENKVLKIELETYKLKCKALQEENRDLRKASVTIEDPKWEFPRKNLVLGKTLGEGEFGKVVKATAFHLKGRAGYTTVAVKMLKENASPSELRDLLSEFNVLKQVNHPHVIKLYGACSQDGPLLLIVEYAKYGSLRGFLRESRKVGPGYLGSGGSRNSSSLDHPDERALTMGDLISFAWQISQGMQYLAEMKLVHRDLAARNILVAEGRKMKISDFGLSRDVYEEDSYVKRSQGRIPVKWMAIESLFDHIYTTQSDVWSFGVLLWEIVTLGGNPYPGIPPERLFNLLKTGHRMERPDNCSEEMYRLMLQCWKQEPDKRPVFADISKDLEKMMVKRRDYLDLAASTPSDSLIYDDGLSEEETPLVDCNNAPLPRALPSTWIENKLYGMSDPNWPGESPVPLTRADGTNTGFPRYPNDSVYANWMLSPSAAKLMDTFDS", "assay": "HTRF KinEASE-TK RET enzyme inhibition", "type": "biochemical", "conditions": "CCDC6-RET 0.3 nM, ATP 15 μM; read-out: Inhibitory IC50 on RET enzyme", "method": "(§1) The inhibitory effects of the crystal form A of the fumarate salt of the compound I on the activity of wild-type RET, mutant-type RET (RET^V804M RET^V804L, and RET^M918T), and fusion-type RET (CCDC6-RET and KIF5B-RET) were determined using HTRF KinEASE-TK (Cisbio) kit.\n(§2) After pre-incubation of the above different types of RET enzymes and different concentrations of the test compounds (9 concentration points) at room temperature for 30 min, a substrate and adenosine triphosphate (ATP) were added to initiate the reaction. After incubation at room temperature for 40 min, TK antibody-cryptate and streptavidin-XL665 were added, and after incubation at room temperature for 60 min, the detection was performed.\n(§3) With the solvent group (DMSO) as the negative control and the buffer group (without RET enzyme) as the blank control, the relative inhibitory activity percentages of the compound at different concentrations were computed as per the following equation: Relative inhibitory activity percentage=1−(compound group of different concentrations-blank control)/(negative control-blank control)*100%\n(§4) The relative inhibitory activity percentages of the compound at different concentrations were plotted with respect to the compound concentrations, and the curve was fitted in accordance with a four-parameter model to compute the IC50 value as per the following equation: y=min+(max−min)/(1+(x/IC50)^(−Hillslope)) • where y is the relative inhibitory activity percentage, max and min are a maximum value of the fitted curve, and a minimum value of the fitted curve respectively, x is a logarithmic concentration of the compound, and Hillslope is a slope of the curve."}, "RET^M918T": {"target": "RET^M918T (Homo sapiens, UniProt P07949, M918T)", "sequence (P07949 29-1114 M918T)": "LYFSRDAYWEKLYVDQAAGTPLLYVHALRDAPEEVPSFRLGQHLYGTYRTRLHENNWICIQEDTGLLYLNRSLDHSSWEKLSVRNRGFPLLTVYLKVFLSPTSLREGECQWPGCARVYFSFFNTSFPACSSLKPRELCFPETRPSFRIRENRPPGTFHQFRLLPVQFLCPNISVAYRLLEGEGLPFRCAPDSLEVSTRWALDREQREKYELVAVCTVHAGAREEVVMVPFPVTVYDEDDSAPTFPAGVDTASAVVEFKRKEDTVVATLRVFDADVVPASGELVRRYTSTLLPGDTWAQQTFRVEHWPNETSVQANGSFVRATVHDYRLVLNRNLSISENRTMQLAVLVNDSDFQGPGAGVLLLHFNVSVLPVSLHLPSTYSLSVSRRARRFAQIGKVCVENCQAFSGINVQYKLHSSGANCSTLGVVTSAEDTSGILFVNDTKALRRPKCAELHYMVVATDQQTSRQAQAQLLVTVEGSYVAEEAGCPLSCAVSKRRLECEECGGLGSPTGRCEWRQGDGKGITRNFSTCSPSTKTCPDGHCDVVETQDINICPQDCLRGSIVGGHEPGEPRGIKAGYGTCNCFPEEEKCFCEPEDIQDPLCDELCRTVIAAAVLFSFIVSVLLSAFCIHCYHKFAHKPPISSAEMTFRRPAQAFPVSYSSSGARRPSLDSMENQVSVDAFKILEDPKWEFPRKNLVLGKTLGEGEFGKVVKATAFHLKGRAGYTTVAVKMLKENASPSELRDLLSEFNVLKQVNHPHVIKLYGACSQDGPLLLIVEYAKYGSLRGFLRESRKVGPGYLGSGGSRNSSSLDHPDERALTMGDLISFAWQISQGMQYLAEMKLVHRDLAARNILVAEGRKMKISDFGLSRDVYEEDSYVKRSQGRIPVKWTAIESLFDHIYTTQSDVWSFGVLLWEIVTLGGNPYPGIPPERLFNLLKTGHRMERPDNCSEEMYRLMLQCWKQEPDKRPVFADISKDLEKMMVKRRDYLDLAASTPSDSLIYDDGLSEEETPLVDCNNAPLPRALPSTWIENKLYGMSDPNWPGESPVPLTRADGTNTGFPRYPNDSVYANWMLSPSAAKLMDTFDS", "assay": "HTRF KinEASE-TK RET enzyme inhibition", "type": "biochemical", "conditions": "RET^M918T 0.3 nM, ATP 15 μM; read-out: Inhibitory IC50 on RET enzyme", "method": "as §1, §2, §3, §4"}, "RET^V804L": {"target": "RET^V804L (Homo sapiens, UniProt P07949, V804L)", "sequence (P07949 29-1114 V804L)": "as the sequence (P07949 29-1114 M918T) above, with V776L, T890M counted along it", "assay": "HTRF KinEASE-TK RET enzyme inhibition", "type": "biochemical", "conditions": "RET^V804L 0.6 nM, ATP 10 μM; read-out: Inhibitory IC50 on RET enzyme", "method": "as §1, §2, §3, §4"}, "RET^V804M": {"target": "RET^V804M (Homo sapiens, UniProt P07949, V804M)", "sequence (P07949 29-1114 V804M)": "as the sequence (P07949 29-1114 M918T) above, with V776M, T890M counted along it", "assay": "HTRF KinEASE-TK RET enzyme inhibition", "type": "biochemical", "conditions": "RET^V804M 0.6 nM, ATP 15 μM; read-out: Inhibitory IC50 on RET enzyme", "method": "as §1, §2, §3, §4"}, "wild-type RET": {"target": "wild-type RET (Homo sapiens, UniProt P07949)", "sequence (P07949 29-1114)": "as the sequence (P07949 29-1114 M918T) above, with T890M counted along it", "assay": "HTRF KinEASE-TK RET enzyme inhibition", "type": "biochemical", "conditions": "RET 0.2 nM, ATP 30 μM; read-out: Inhibitory IC50 on RET enzyme", "method": "as §1, §2, §3, §4"}, "[4]": {"assay": "Pharmacokinetic study in mice", "type": "in vivo", "conditions": "female Balb/c mice, PO 1 mg/kg, plasma compound I", "method": "Female Balb/c mice (6 mice) were orally administered with 1 mg/kg of the crystal form A of the fumarate salt of the compound I by gavage. The compound was first dissolved with 0.5% methylcellulose solution and ultrasonicated to ensure complete dissolution or uniform suspension of the compound. 30 min, 1 […], and 24 h after administration, 0.2 mL of blood (EDTA-K2 anticoagulated) was venously collected. The collected whole blood was temporarily stored in an ice box, and centrifuged for 10 min within 2 h to separate the plasma (4° C.). The collected plasma was stored in a refrigerator at -80° C. prior to testing. The blood concentration of the compound I was detected by LC-MS/MS, and the linear range was from 10 to 10000 ng/mL."}, "[5]": {"conditions": "High humidity 25° C. ± 2° C./92.5% RH ± 5% RH, Day 30"}, "[6]": {"conditions": "High temperature 60° C. ± 2° C., Day 30"}},
  "data": [
    {"smiles": "Cc1cc(Nc2cc(C)[nH]n2)nc(-c2ccc(N3CC4CC(C3)N4Cc3ccc(-n4cc(F)cn4)nc3)nc2)n1", "values": [
      {"measurement": "solubility", "setting": "[1]; Buffer pH 1.0", "result": "≥ 12200", "unit": "µg/mL"},
      {"measurement": "solubility", "setting": "[1]; Buffer pH 2.0", "result": 3500, "unit": "µg/mL"},
      {"measurement": "solubility", "setting": "[1]; Buffer pH 3.0", "result": 2500, "unit": "µg/mL"},
      {"measurement": "Appearance", "setting": "[2]; Day 0", "result": "White solid"},
      {"measurement": "HPLC purity", "setting": "[2]; Day 0", "result": 99.6, "unit": "%"},
      {"measurement": "Appearance", "setting": "[2]; [5]", "result": "White solid"},
      {"measurement": "Crystal form", "setting": "[2]; [5]", "result": "form A"},
      {"measurement": "HPLC purity", "setting": "[2]; [5]", "result": 99.5, "unit": "%"},
      {"measurement": "Appearance", "setting": "[2]; [6]", "result": "White solid"},
      {"measurement": "Crystal form", "setting": "[2]; [6]", "result": "form A"},
      {"measurement": "HPLC purity", "setting": "[2]; [6]", "result": 99.3, "unit": "%"},
      {"measurement": "crystal form before and after the DVS test", "setting": "[3]; RH range 0%-90%-0%", "result": "remained changed"},
      {"measurement": "desorption of adsorbed water (DVS)", "setting": "[3]; humidity decreased from 90% to 0%", "result": "fully desorbed"},
      {"measurement": "water absorbed (DVS)", "setting": "[3]; humidity increased to 90%", "result": "about 0.7%"},
      {"measurement": "IC50", "setting": "CCDC6-RET", "result": "2.48 ± 1", "unit": "nM"},
      {"measurement": "IC50", "setting": "RET^M918T", "result": "2.23 ± 0.64", "unit": "nM"},
      {"measurement": "IC50", "setting": "RET^V804L", "result": "1.59 ± 0.51", "unit": "nM"},
      {"measurement": "IC50", "setting": "RET^V804M", "result": "0.6 ± 0.2", "unit": "nM"},
      {"measurement": "IC50", "setting": "wild-type RET", "result": "0.56 ± 0.09", "unit": "nM"},
      {"measurement": "Cl", "setting": "[4]", "result": 1.47, "unit": "mL/min/kg"},
      {"measurement": "Vd", "setting": "[4]", "result": 0.356, "unit": "L/kg"},
      {"measurement": "AUC(0-inf)", "setting": "[4]; mouse", "result": 11400, "unit": "ng·h/mL"},
      {"measurement": "AUC(0-t)", "setting": "[4]; mouse", "result": 11400, "unit": "ng·h/mL"},
      {"measurement": "Cmax", "setting": "[4]; mouse", "result": 2060, "unit": "ng/mL"},
      {"measurement": "Tmax", "setting": "[4]; mouse", "result": 1, "unit": "h"},
      {"measurement": "half-life", "setting": "[4]; mouse", "result": 2.81, "unit": "h"}
    ]}
  ]
}
